This note sets out measurements from patent US5126368A, “Octenoic acid derivatives useful as thromboxane A2 inhibitors” (Imperial Chemical Industries plc, priority 1985, dated 1992).

Molecules are shown by their SMILES.

In one test the test system is rabbit aortal strip. As to the kind of experiment: Test (a): rabbit aortal strip model (Piper and Vane). Type of test: cell-based. To be noted: agonist TXA2 or U46619. The procedure:
(§1) As stated earlier, the compound of formula I is an antagonist of one or more of the actions of TXA2, for example certain of its actions on blood platelets, the vasculature and/or the lung.
(a) The rabbit aortal strip model devised by Piper and Vane (Nature, 1969, 223, 29-35) using as agonist a freshly prepared sample of TXA2, generated by addition of arachidonic acid (25 μg) to citrated, platelet rich rabbit plasma (250 μl) and allowing the mixture to aggregate fully over 90 seconds before use; alternatively the TXA2 mimetic agent known as U46619 (described by R.L. Jones et alia in "Chemistry, Biochemistry and Pharmacological Activity of Prostanoids" edited by S.M. Roberts and F. Scheinmann, at page 211; Pergamon Press, 1979) may be used as the agonist;

Test [1] has as its target T1, human, citrated, platelet-rich plasma (Homo sapiens, UniProt P21731).
T1 construct: aggregating human, citrated, platelet-rich plasma; endogenous in cells; host or cells: human platelets in citrated platelet-rich plasma
T1 sequence (P21731 1-343): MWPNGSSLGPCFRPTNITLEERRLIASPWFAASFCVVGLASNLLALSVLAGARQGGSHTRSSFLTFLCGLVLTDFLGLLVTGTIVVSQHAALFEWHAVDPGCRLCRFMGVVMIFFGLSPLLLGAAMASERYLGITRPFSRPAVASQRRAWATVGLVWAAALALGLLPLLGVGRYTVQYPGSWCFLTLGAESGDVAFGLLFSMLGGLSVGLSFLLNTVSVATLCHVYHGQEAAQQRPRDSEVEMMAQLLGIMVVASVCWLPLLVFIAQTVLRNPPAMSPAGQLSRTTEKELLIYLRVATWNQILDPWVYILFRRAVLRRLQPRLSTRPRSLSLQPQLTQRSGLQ
As to the kind of experiment: Test (b): U46619-induced aggregation of human citrated platelet-rich plasma (Born). Type of test: cell-based. To be noted: agonist U46619, averaged over several concentrations.
Description: as §1
(b) a blood platelet aggregation test based on that described by Born (Nature, 1962, 194, 927-929) and involving:
(i) aggregating human, citrated, platelet-rich plasma by addition of the TXA2 mimetic agent U46619 so that a dose-response curve is generated;
(ii) generating a dose-response curve for U46619 stimulated platelet aggregation in the presence of increasing amounts of test compound (generally in the range 10^-5 M to 10^-10 M); and
(iii) calculating a KB value indicating potency of TXA2 antagonism for the test compound, averaged over several concentrations, from the calculated 50% response value for U46619 aggregation in the presence and absence of test compound; and […]

The subject of test [2] is U46619 induced hypertension. As to the kind of experiment: Test (d): U46619-induced hypertension in anaesthetised rats. In kind it is in vivo, rat (Alderley Park strain). To be noted: 1 hour after an oral dose of 5 mg/kg. The procedure:
(d) Male rats (Alderley Park strain) are anaesthetised with sodium pentobarbital and blood pressure is monitored at the carotid artery. The TXA2 mimetic agent U46619 is administered intravenously at 5 μg/kg via the jugular vein to produce a 20-30 mm Hg ([…]) increase in systolic pressure. The procedure is repeated twice to establish reproducibility of the effect. A test compound is then administered either intravenously (via the jugular vein) or orally (via a cannula) directly into the stomach and the animal is challenged with U46619, five minutes after dosing with test compound and then successively every ten minutes until the hypertensive effect of U46619 is no longer blocked.

Test [3] relates to U46619 induced bronchoconstriction. Nature of the test: Test (c): U46619-induced bronchoconstriction, Konzett-Rossler anaesthetised guinea-pig model. In kind it is in vivo. To be noted: 2 hours after oral dosing at 0.05 mg/kg, U46619 i.v. The text has this:
(c) a bronchoconstriction test involving measuring the inhibition by a test compound of the bronchoconstriction induced in the Konzett-Rossler, anaesthetised guinea-pig model (as modified by Collier and James, Brit. J. Pharmacol., 1967, 30, 283-307) by intravenous administration of the TXA2 mimetic agent, U46619 and involving:
(i) obtaining a cumulative dose-response curve to U46619 induced bronchoconstriction by intravenous administration of constant volumes of increasing concentrations of U46619 (0.2-4 μg/kg) in physiological saline solution and expressing bronchoconstriction as the maximum of that theoretically obtainable with no air flow to the test animal;
(ii) generating a cumulative dose-response curve to U46619 induced bronchoconstriction at 30 minute intervals for 3 hours after oral dosing of test compound; and
(iii) calculating a dose-ratio for the test compound (that is the ratio of concentration of U46619 required to cause 50% bronchoconstriction in the presence and absence of test compound) indicating the potency of TXA2 antagonism.

In the test on rabbit aortal strip, `O=C(O)CCC/C=C\C[C@@H]1CO[C@H](C(F)(F)F)O[C@@H]1c1ccccc1` (relative stereo) [5(Z)-7-([2,4,5-cis]-4-phenyl-2-trifluoromethyl-1,3-dioxan-5-yl)heptenoic acid, reference compound] registered a pA2 of 6.52±0.02.

Consider `O=C(O)CCCC/C=C\C[C@@H]1CO[C@H](C(F)(F)F)O[C@@H]1c1ccccc1O` (relative stereo) [compound of formula I, 6(Z)-8-([2,4,5-cis]-4-o-hydroxyphenyl-2-trifluoromethyl-1,3-dioxan-5-yl)octenoic acid], for which the Kb in test [1] was 3.35 µM. For the same compound, the “inhibition of U46619 induced hypertension” value in test [2] was > 70%. In addition, the pA2 with rabbit aortal strip came to 7.75±0.05. Also, the dose ratio in test [3] is listed as > 60.

Broadly, the pA2 is the negative logarithm of the molar antagonist concentration that doubles the agonist concentration needed for the same response.
